Test results taken from ChEMBL document CHEMBL3046658, “Fate of cyromazine applied in nutrient solution to a gerbera (Gerbera jamesonii) crop grown in a closed hydroponic system” (Crop Prot, 2007).

Legend:
Format in all cases: ADME
Flower [1] = assay: Drug recovery in flower of Gerbera jamesonii grown in closed hydroponic system at 45 g applied through nutrient solution measured on day 56 post-treatment by gas chromatographic analysis; conditions: in vivo, other
Flower [2] = assay: Drug level in flower of Gerbera jamesonii grown in closed hydroponic system at 750 mg/l applied through nutrient solution measured 48 hr post-treatment in winter by gas chromatographic analysis; conditions: other
Flower [3] = assay: Drug level in flower of Gerbera jamesonii grown in closed hydroponic system assessed per fresh weight at 375 mg/l applied through nutrient solution measured on day 56 post-treatment in winter by gas chromatographic analysis; conditions: other
Root [4] = assay: Drug level in root of Gerbera jamesonii grown in closed hydroponic system assessed per fresh weight at 750 mg/l applied through nutrient solution measured on day 121 post-treatment in winter by gas chromatographic analysis; conditions: other
Leaf [5] = assay: Drug level in leaf of Gerbera jamesonii grown in closed hydroponic system assessed per fresh weight at 375 mg/l applied through nutrient solution measured on day 50 post-treatment in summer by gas chromatographic analysis; conditions: other
Root [6] = assay: Drug level in root of Gerbera jamesonii grown in closed hydroponic system assessed per fresh weight at 375 mg/l applied through nutrient solution measured on day 17 post-treatment in winter by gas chromatographic analysis; conditions: other
Root [7] = assay: Drug recovery in root of Gerbera jamesonii grown in closed hydroponic system at 45 g applied through nutrient solution measured on day 56 post-treatment by gas chromatographic analysis; conditions: in vivo, other
Leaf [8] = assay: Drug recovery in leaf of Gerbera jamesonii grown in closed hydroponic system at 22.5 g applied through nutrient solution measured on day 56 post-treatment by gas chromatographic analysis; conditions: in vivo, other
Leaf [9] = assay: Drug level in leaf of Gerbera jamesonii grown in closed hydroponic system assessed per fresh weight at 375 mg/l applied through nutrient solution measured on day 56 post-treatment in winter by gas chromatographic analysis; conditions: other
Leaf [10] = assay: Drug level in leaf of Gerbera jamesonii grown in closed hydroponic system assessed per fresh weight at 750 mg/l applied through nutrient solution measured on day 56 post-treatment in winter by gas chromatographic analysis; conditions: other
Flower [11] = assay: Drug level in flower of Gerbera jamesonii grown in closed hydroponic system at 375 mg/l applied through nutrient solution measured 48 hr post-treatment in winter by gas chromatographic analysis; conditions: other
Leaf [12] = assay: Drug level in leaf of Gerbera jamesonii grown in closed hydroponic system assessed per fresh weight at 750 mg/l applied through nutrient solution measured on day 121 post-treatment in winter by gas chromatographic analysis; conditions: other
Flower [13] = assay: Drug level in flower of Gerbera jamesonii grown in closed hydroponic system assessed per fresh weight at 375 mg/l applied through nutrient solution measured on day 121 post-treatment in winter by gas chromatographic analysis; conditions: other
Leaf [14] = assay: Drug recovery in leaf of Gerbera jamesonii grown in closed hydroponic system at 45 g applied through nutrient solution measured on day 56 post-treatment by gas chromatographic analysis; conditions: in vivo, other
Leaf [15] = assay: Drug level in leaf of Gerbera jamesonii grown in closed hydroponic system assessed per fresh weight at 375 mg/l applied through nutrient solution measured on day 121 post-treatment in winter by gas chromatographic analysis; conditions: other
Flower [16] = assay: Drug level in flower of Gerbera jamesonii grown in closed hydroponic system assessed per fresh weight at 750 mg/l applied through nutrient solution measured on day 121 post-treatment in winter by gas chromatographic analysis; conditions: other
Root [17] = assay: Drug level in root of Gerbera jamesonii grown in closed hydroponic system assessed per fresh weight at 750 mg/l applied through nutrient solution measured on day 17 post-treatment in winter by gas chromatographic analysis; conditions: other
Root [18] = assay: Drug level in root of Gerbera jamesonii grown in closed hydroponic system assessed per fresh weight at 375 mg/l applied through nutrient solution measured on day 121 post-treatment in winter by gas chromatographic analysis; conditions: other
Flower [19] = assay: Drug recovery in flower of Gerbera jamesonii grown in closed hydroponic system at 22.5 g applied through nutrient solution measured on day 56 post-treatment by gas chromatographic analysis; conditions: in vivo, other
Flower [20] = assay: Drug level in flower of Gerbera jamesonii grown in closed hydroponic system assessed per fresh weight at 750 mg/l applied through nutrient solution measured on day 56 post-treatment in winter by gas chromatographic analysis; conditions: other
Root [21] = assay: Drug recovery in root of Gerbera jamesonii grown in closed hydroponic system at 22.5 g applied through nutrient solution measured on day 56 post-treatment by gas chromatographic analysis; conditions: in vivo, other

Nc1nc(N)nc(NC2CC2)n1 [CYROMAZINE]
Drug recovery (Flower [1]): 27%
Drug uptake (Flower [2]): Not Active
Drug uptake (Flower [3]): 32.3 mg/kg
Drug uptake (Root [4]): 15.1 mg/kg
Drug uptake (Leaf [5]): 65.8 mg/kg
Drug uptake (Root [6]): 105 mg/kg
Drug recovery (Root [7]): 27%
Drug recovery (Leaf [8]): 44%
Drug uptake (Leaf [9]): 105 mg/kg
Drug uptake (Leaf [10]): 129.7 mg/kg
Drug uptake (Flower [11]): Not Active
Drug uptake (Leaf [12]): 61.8 mg/kg
Drug uptake (Flower [13]): 1.9 mg/kg
Drug recovery (Leaf [14]): 27%
Drug uptake (Leaf [15]): 51.5 mg/kg
Drug uptake (Flower [16]): 2.2 mg/kg
Drug uptake (Root [17]): 93 mg/kg
Drug uptake (Root [18]): 12.2 mg/kg
Drug recovery (Flower [19]): 44%
Drug uptake (Flower [20]): 48.2 mg/kg
Drug recovery (Root [21]): 44%
